Experimental data published in article PMC11694536 (Alzheimer's & Dementia : Translational Research & Clinical …, 2024).
In brackets after ≈: the same amount, converted by molar mass.

Columns and labels:
[1] = MDCK passive permeability; type: in vitro ADME, canine; conditions: dog
[2] = Clinical pharmacokinetics in Phase 1 studies; type: in vivo, human
[3] = target: human ether‐à‐go‐go (hERG) channel (Homo sapiens, UniProt Q12809); assay: hERG channel inhibition; type: biochemical
[4] = Plasma protein binding, mice; type: in vitro ADME; conditions: mouse
Predicted human PK = conditions: allometry from rat, dog, monkey PK
Solubility = type: physicochemical; conditions: phosphate buffer, pH 7.5, aqueous buffer
[5] = Phase 1 clinical safety and tolerability; type: in vivo, human
[6] = tested on: protein O‐GlcNAc modification in human embryonic kidney cells; assay: Cellular protein O-GlcNAc increase; type: cell-based; conditions: read-out: Protein O‐GlcNAc (cellular) Relative EC50
[7] = Phase 2 study PROSPECT-ALZ in early symptomatic AD; type: in vivo, human; conditions: Prospect‐ALZ Phase 2 study; full results to be published separately
[8] = SAD study, single oral doses 0.15 to 16 mg

Sequence of human ether‐à‐go‐go (hERG) channel (Q12809 whole entry): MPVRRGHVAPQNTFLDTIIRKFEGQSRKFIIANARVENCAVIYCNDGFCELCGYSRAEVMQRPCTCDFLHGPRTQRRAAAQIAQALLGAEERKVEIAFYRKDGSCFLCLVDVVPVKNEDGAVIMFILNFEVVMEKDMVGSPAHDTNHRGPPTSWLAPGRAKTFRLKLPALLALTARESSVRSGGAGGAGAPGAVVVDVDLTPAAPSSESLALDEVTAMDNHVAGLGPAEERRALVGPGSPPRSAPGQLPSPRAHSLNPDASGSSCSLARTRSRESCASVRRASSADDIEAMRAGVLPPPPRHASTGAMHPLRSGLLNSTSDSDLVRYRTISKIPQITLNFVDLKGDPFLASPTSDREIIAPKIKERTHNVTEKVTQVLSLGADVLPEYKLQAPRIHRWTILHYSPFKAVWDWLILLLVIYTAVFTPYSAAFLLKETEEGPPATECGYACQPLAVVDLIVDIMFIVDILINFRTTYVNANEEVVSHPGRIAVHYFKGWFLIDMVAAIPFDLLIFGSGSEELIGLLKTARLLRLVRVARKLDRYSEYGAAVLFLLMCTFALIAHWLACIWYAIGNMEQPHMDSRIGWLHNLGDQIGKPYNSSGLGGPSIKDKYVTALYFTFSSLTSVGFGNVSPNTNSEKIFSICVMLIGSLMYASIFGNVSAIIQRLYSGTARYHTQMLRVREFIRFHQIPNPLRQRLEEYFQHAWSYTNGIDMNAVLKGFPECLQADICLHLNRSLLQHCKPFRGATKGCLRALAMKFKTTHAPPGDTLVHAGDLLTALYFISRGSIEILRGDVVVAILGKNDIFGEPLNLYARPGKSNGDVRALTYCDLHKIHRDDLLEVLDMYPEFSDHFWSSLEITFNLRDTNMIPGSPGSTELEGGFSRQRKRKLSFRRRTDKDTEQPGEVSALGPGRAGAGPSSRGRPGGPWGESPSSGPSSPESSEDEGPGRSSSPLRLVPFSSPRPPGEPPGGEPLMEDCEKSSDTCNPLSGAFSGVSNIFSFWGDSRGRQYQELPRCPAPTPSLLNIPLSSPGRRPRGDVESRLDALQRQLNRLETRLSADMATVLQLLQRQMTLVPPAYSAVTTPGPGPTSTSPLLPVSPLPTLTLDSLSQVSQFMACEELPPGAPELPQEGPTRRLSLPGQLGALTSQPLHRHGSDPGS

Papp [1]: 50.1 ×10⁻⁶ cm/s
accumulation with QD dosing ([2]; MAD study, 1, 3, 7 mg QD for 14 days, day 1 vs day 14): minimal accumulation
CL/F [2, 8]: 12 L/h
V/F [2, 8]: 112 L
fraction unbound [4]: 0.684
predicted human apparent clearance (CL/F) (Predicted human PK): 12 L/h
predicted human apparent volume of distribution (V/F) (Predicted human PK): 48 L
solubility (Solubility): 1360 µg/mL (≈ 3.55 mM)
Structure (SMILES): CC(=O)Nc1nc(F)c(CN2CC[C@H](OCc3noc(C)n3)C[C@@H]2C)s1 [ceperognastat]
IC50 [3]: 81 µM
participants reporting at least one TEAE ([5]; MD‐PET study, 1 mg QD 14 days): Four out of four
participants reporting TEAEs ([5]; SAD study, 13 of 23 ceperognastat-treated participants): 56.5%
participants reporting at least one TEAE ([5]; SD‐PET study, 8 of 16 participants, single oral dose): 50%
serious adverse events (SAEs) ([5]; all Phase 1 clinical studies): no serious adverse events
EC50 [6]: 0.0219 ± 0.0073 µM
clinical benefit in early AD [7]: did not show evidence of clinical benefit
